Laboratory results from PMC5719086, “Effective in vivo gene delivery with reduced toxicity, achieved by charge and fatty acid -modified cell penetrating peptide” (Scientific Reports, 2017).
Read-outs that look alike come from different tables or passages of the source. Square brackets hold non-standard residues; d marks the D form. Peptide text beside a SMILES is read from it. * marks the point of attachment. Stearoyl = CCCCCCCCCCCCCCCCCC(=O)*; Orn = NCCC[C@H](N)C(=O)O

Key:
mouse RBC = test: Hemolysis assay (activity towards cell membranes); format: cell-based; conditions: 1 h 37 °C, triplicates
Experimental: The ability of the peptides to lyse the red blood cells (RBC) in PBS was used as a measure of membrane activity. To obtain fresh mouse RBC, blood was collected from the saphenous vein using sodium-heparinized (80 iu/ml ± 30%) blood collection capillaries (Marienfeld, Germany) and transferred to heparinized blood collecting tubes (Sarstedt, Germany). To isolate RBCs, the whole blood was centrifuged for 15 minutes at 300 × g, followed by removal of the plasma. The RBCs were then washed three times with 1 × PBS (RBC pelleting with 15 minutes at 300 × g). The resulting RBCs were then resuspended in PBS at 4% (v/v).
For the analysis, 200 μl of RBC suspension was added to 200 μl of peptide solution or peptide/pDNA complexes in 5% glucose (final RBC concentration 2%) and gently vortexed. The peptide/pDNA complexes were prepared using a fixed 1 μg of pDNA and varying amount of the peptide. Following this, samples were incubated for 1 hour at 37 °C with gentle stirring. After incubation, the RBCs were pelleted (15 minutes at 300 × g) and the amount of hemoglobin in the supernatant was assessed by measuring the absorbance at 540 nm using a 96-well microplate reader. The experiments were conducted in triplicates.
100% of hemolysis was defined as the RBCs treated with 0.1% Triton-X100 in PBS and 0% was obtained with cells incubated in 5% glucose solution. % of hemolysis was calculated by the formula: % Hemolysis = [(Asample − Aglucose)/Atriton − Aglucose)] × 100.

proteinase K [1] = target: T1, proteinase K (Parengyodontium album, UniProt P06873); test: Proteinase K treatment of CPP/pDNA complexes; format: in vitro ADME; conditions: 26 °C
T1 construct: purchased Thermo Scientific
T1 sequence (P06873 106-384): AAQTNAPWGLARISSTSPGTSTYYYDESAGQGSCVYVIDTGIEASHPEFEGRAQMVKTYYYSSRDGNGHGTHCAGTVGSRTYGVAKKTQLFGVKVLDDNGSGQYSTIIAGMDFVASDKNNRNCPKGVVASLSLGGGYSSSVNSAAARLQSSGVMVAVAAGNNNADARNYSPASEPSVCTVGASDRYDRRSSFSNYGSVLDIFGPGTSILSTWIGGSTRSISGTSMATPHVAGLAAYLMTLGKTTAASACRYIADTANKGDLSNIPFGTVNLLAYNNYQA
Experimental: For the proteinase K treatment, 30 μl of pre-formed CPP/pDNA complex solution (0.3, 0.2, 0.1 and 0.05 µg of pDNA per sample) or CPP in MQ was transferred to a black 96-well plate and 90 µl of MQ was added. After a short period of mixing, fluorescent DNA intercalating dye dilution was added (Quant-iT™ PicoGreen®, ThermoFisher Scientific) and incubated for 5 minutes at room temperature. The fluorescence was measured (Synergy MX, BioTek; λex 492 and λem 535) to quantify the initial accessibility of pDNA. Thereafter 10 μl of Proteinase K (Thermo Scientific) was added with the final enzyme concentration ~2.4 U per well. Fluorescence was measured over an indicated period at 26 °C. The readings were normalized against the fluorescence of free pDNA.

proteinase K [2] = target: T1, proteinase K; format: in vitro ADME
CHO cells = test: Plasmid delivery (luciferase) assay in cell culture; format: cell-based; conditions: 24-well plate
Experimental: If not indicated otherwise, complexes were formed using 0.5 μg of pDNA (pGL3, Promega, Sweden) mixed with a peptide at indicated charge ratio (N/P, nitrogen-to-phosphate ratio) in MQ water in a final volume of 50 μl. N/P was calculated theoretically and accounted for both the positive charges of the peptide (Table 1) and negative charges of the pDNA. Thereafter, complexes were incubated for 40 minutes at room temperature prior to each experiment.
For the plasmid delivery assay, 4 × 10^4 CHO cells were seeded 24 hours prior to each experiment in 24-well plates. Cells were treated with CPP/pDNA complexes at indicated N/P for 4 h in serum containing media, followed by the addition of 1 ml 10% serum-containing medium and incubated for another 20 hours. Thereafter, cells were washed with 1x PBS and lysed using 100 µl 0.1% Triton X-100 in PBS for 15 min at 4 °C. Luciferase activity was measured using Promega’s luciferase assay system according to the manufacturer’s protocol using a GLOMAX™ 96 microplate luminometer (Promega, Sweden) and normalized to the protein content (BioRad Protein Assay, USA).

BALB/c mice = test: Side effects / lethality after i.v. injection of complexes; format: in vivo, mouse; conditions: PF14/pDNA at N/P2, i.v., all experiments
Experimental: For in vivo studies, 20–50 µg of p-CMV-Luc2 (marked as pLuc in the text) per animal was mixed with a peptide at indicated N/P in MQ in a final volume of 100 µl. After 40 minutes of incubation, glucose was added to a final 5% glucose in 200 μl and immediately injected intravenously via the tail vein.
Reporter gene expression levels were evaluated post mortem 24 h after injecting the complexes into the tail vein, using male and female BALB/c mice (8-week-old). Each animal received a single 200 μl i.v. injection of the complexes. The mice were sacrificed using cervical dislocation and tissues were harvested and snap-frozen on dry ice. The whole tissues were homogenized using a Precellys®24-Dual homogenization system (Bertin Technologies, France) and lysed using 1 × Promega lysis buffer (Promega, Sweden). The content of luciferase was analyzed as described previously. Briefly, homogenized tissues were thawed and 500 µl of Promega Reporter lysis 1 × buffer was added. The samples were subsequently vortexed for 15 minutes, subjected to three consecutive freeze-thaw cycles (liquid nitrogen and 37 °C water bath), centrifuged for three minutes at 10,000 x g, 4 °C; the supernatant was removed and saved for later analysis. […] Luciferase was measured with Promega luciferase assay system, in combination with GLOMAX 96 microplate luminometer (Promega, Sweden). […]

lungs = conditions: Cy5-labelled pDNA, i.v., 1 h post-injection, confocal microscopy of cryosections
Experimental: The physical accumulation of the complexes were assessed by using Cy5-labeled pDNA (Mirus, USA). Equal amounts of labelled pDNA were administered, regardless of the N/P ratio of the complexes (e.g. N/P4 included 20 μg of labelled pDNA, whereas in case of N/P2, 20 μg of labelled pDNA was mixed with 30 μg of unlabeled pDNA). For the histological evaluation, the lungs were inflated postmortem with 1:1 cryomatrix:PBS (O.C.T embedding matrix, Kaltek, Italy), frozen in 2-methylbutane bath on dry ice. Fresh cryo-sections (10 μm thick) were fixed with ice cold methanol, counterstained with DAPI (AppliChem) and imaged with confocal microscopy (Zeiss LSM710).

[3] = Complex stability in FBS, gel shift assay; conditions: 50% FBS, 37 °C, 48 h, serum and/or triton + heparin dissociation
Experimental: Then the samples were mixed with the DNA loading dye and electrophoresed exactly as stated above in the Gel shift assay description, using 0.1 µg of pDNA per lane. ZipRuler Express DNA Ladder 2 (ThermoFisher Scientific) was added to each gel.
The stability of the complexes after incubation in FBS, visualized by gel shift assay.

CCCCCCCCCCCCCCCCCC(=O)N[C@@H](C)C(=O)NCC(=O)N[C@@H](Cc1ccc(O)cc1)C(=O)N[C@@H](CC(C)C)C(=O)N[C@@H](CC(C)C)C(=O)NCC(=O)N[C@@H](CCCCN)C(=O)N[C@@H](CC(C)C)C(=O)N[C@@H](CC(C)C)C(=O)N[C@@H](CCCN)C(=O)N[C@@H](CCCN)C(=O)N[C@@H](CC(C)C)C(=O)N[C@@H](C)C(=O)N[C@@H](C)C(=O)N[C@@H](C)C(=O)N[C@@H](C)C(=O)N[C@@H](CC(C)C)C(=O)N[C@@H](CCCN)C(=O)N[C@@H](CCCN)C(=O)N[C@@H](CC(C)C)C(=O)N[C@@H](CC(C)C)C(N)=O [PF14] (Stearoyl-AGYLLGKLL[Orn][Orn]LAAAAL[Orn][Orn]LL-NH2)
EC50 (mouse RBC; naked peptide in 5% glucose, mouse RBC 2% final in PBS, hemoglobin absorbance 540 nm, 100% = 0.1% Triton X-100, read-out: EC50 (μM) of CPP (membrane activity, concentration required to lyse 50% of the cells)): 0.66 µM
EC50 (mouse RBC; peptide/pDNA complexes, fixed 1 μg pDNA and varying peptide, mouse RBC 2% final, absorbance 540 nm, read-out: EC50 (μM) of CPP/pDNA (membrane activity)): 1.43 µM
stability of the complexes against proteinase K (in words) (proteinase K [1]; CPP/pDNA complexes at N/P2, accessible pDNA over time by intercalating dye): less stable particles where DNA was liberated into the solution
Proteinase K: t1/2 (min) of the complexed pDNA (95%CI) (proteinase K [1]; CPP/pDNA complexes at N/P2 in MQ, proteinase K ~2.4 U per well, accessible pDNA by PicoGreen fluorescence, normalized to free pDNA): 108.3 (101.9 ± 118.4) min
degradation of naked peptide by proteinase K (in words) (proteinase K [2]): easily degraded
usable pDNA dose before toxicity, N/P2 (CHO cells; PF14/pDNA N/P2, CHO cells): up to 2 μg
pDNA dose giving maximum transfection before toxicity, N/P4 (CHO cells; PF14/pDNA N/P4, CHO cells): 0.5 μg
usable pDNA dose before toxicity, N/P6 (CHO cells; PF14/pDNA N/P6, CHO cells): 0.125 μg
lethality / side effects, N/P2 (BALB/c mice): zero lethality
accumulation of complexes in lungs, N/P2 (in words) (lungs): significantly lower signal
accumulation of complexes in lungs, N/P4 (in words) (lungs): considerable amount of the fluorescence was observed in lungs
pDNA migration from complexes after 48 h in serum (in words) [3]: migration of pDNA from some of the complexes could be observed
